These results are taken from US20220119355A1, “SATURATED-RING-FUSED DIHYDROPYRIMIDINONE OR DIHYDROTRIAZINONE COMPOUNDS AND PHARMACEUTICAL USE THEREOF” (Japan Tobacco Inc., priority 2018, published 2022).

The target in assay [1] is T1, human RORγ (Homo sapiens, UniProt P51449).
T1 construct: from Ser253 to Lys518 for human RORγ; expressed in transfected cells; host or cells: CHO cells (transient co-transfection with pG5-Luc)
T1 sequence (P51449 253-518): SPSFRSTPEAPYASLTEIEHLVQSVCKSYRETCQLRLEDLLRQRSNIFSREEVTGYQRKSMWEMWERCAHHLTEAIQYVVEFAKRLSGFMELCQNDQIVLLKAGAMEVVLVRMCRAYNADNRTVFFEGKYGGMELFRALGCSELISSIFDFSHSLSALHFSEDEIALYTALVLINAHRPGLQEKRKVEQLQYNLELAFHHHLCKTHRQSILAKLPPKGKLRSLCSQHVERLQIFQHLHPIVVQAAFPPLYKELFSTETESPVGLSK
In words: In-vitro reporter gene assay for inhibitory activity against RORγ transcription, Test Method B (pFA/hRORγ LBD / pG5-Luc in CHO cells). In kind it is cell-based. The conditions noted are these: for EC50: luciferase reporter, CHO cells, 2 days. On the procedure:
(§1) In-Vitro Assay for Inhibitory Activity Against RORγ Transcription
(§2) Inhibitory activity against RORγ transcription was assessed for test compounds by either of the following Test Method A or B of reporter gene assay.
(§3) cDNAs encoding human and mouse RORγ ligand binding domains (LBD) were obtained based on the sequences of human RORγ (Genbank registered number NM_005060.3) and mouse RORγ (Genbank registered number NM_011281.2) (LBD sequences: from Ser253 to Lys518 for human RORγ; from Ile251 to Lys516 for mouse RORγ).
(§4) LBD cDNAs of human and mouse RORγ were inserted into pFA-CMV vector (Agilent Technologies, Inc.), which expresses GAL4-DNA binding domain fusion protein. The resulting plasmids are hereinafter referred to as pFA/hRORγ plasmid and pFA/mRORγ plasmid, respectively.
(§5) pFA/hRORγ plasmid or pFA/mRORγ plasmid was transiently co-transfected into Chinese hamster ovary cells (CHO cells) with pG5-Luc (Promega), reporter plasmid expressing firefly luciferase in a GAL4-dependent manner.
(§6) TransIT (Registered trademark) CHO Transfection Kit (Mirus) was used to co-transfect CHO cells with the plasmids. One day prior to the assay, CHO cells were suspended in HAM F-12 Nutrient medium containing 10% (v/v) fetal bovine serum and seeded at 5.5×10^6 cells per 225 cm^2 cell culture flask each. 72 μL of TransIT (Registered trademark) CHO reagent was added into a 2 mL tube containing 1.55 mL of Opti-MEM, and then mixed and incubated at room temperature for 10 minutes. 50.4 μL of a plasmid solution containing 300 ng of pFA/hRORγ plasmid, 12000 ng of pG5-Luc plasmid, and 11700 ng of pcDNA3.1 plasmid were added into the tube and mixed gently. In the case of mouse assay, a plasmid solution containing 300 ng of pFA/mRORγ plasmid, 12000 ng of pG5-Luc plasmid, and 11700 ng of pcDNA3.1 plasmid was added, instead. The mixture was incubated at room temperature for 10 minutes. 12 μL each of CHO Mojo Reagent were then added into each tube and mixed gently. The mixture was incubated at room temperature for 10 minutes. The resulting transfection reagent was applied to the cell culture. After incubation at 37° C., 5% CO2 for 4 hours, the plasmid-transfected CHO cells were harvested by trypsin treatment. The collected cells were resuspended in culture medium and plated into a 384-well-white plate at 8,000 cells/35 μL/well. The plate was let stand at room temperature for 1 hour and then further incubated at 37° C., 5% CO2 for 3 hours. A test compound was dissolved in dimethyl sulfoxide (DMSO) to obtain a concentration of 10 mM. Each solution was serially diluted with DMSO and further diluted with culture medium just before use. The test compound solutions were added to the cells in the plate at 6 different concentrations. The final concentration of DMSO was 0.2% (v/v). After the addition of test compound, the cells were incubated at 37° C., 5% CO2 for 2 days.
(§7) RORγ transcriptional activity was detected as the intracellular luciferase activity using SteadyLite HTS Reporter Gene Assay System (Perkin Elmer). SteadyLite Reagent was diluted 2.5-fold with Extension buffer (10 mM Tricine, 0.2% (w/v) bovine serum albumin, 0.02% (v/v) Tween-20) to obtain a luciferase substrate solution. Two days after the addition of test compound, 40 μL each of the luciferase substrate solution was added into the 384-well-plate. After the incubation at room temperature for 10 minutes, luminescence of each well was measured with a microplate reader. The luciferase activity derived from the luminescence count in a vehicle-control well treated with 0.2% DMSO alone was defined as 100%, and the luciferase activity after treatment of the test compound was calculated as a percentage, %-of-control, based on the value of the vehicle-control. An EC50 value of the test compound was calculated by curve fitting. The luminescence counts at the concentration of test compound where cytotoxicity was observed were excluded from data analysis. […]

Assay [2] concerns the target T2, mouse RORγ (Mus musculus, UniProt P51450).
T2 construct: from Ile251 to Lys516 for mouse RORγ; expressed in transfected cells; host or cells: CHO cells (transient co-transfection with pG5-Luc)
T2 sequence (P51450 251-516): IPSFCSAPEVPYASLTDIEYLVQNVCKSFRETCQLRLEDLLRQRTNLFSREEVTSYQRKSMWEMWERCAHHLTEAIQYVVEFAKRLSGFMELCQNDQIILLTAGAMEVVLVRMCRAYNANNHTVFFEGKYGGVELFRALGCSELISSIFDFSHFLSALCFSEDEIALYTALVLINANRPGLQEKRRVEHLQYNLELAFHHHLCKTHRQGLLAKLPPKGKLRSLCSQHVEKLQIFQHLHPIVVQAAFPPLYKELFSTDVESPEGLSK
Briefly: In-vitro reporter gene assay for inhibitory activity against RORγ transcription, Test Method B (pFA/mRORγ LBD / pG5-Luc in CHO cells). In kind it is cell-based. The following applies: for EC50: luciferase reporter, CHO cells, 2 days. On the procedure:
as §1, §2, §3, §4, §5, §6, §7
(In general: Reporter assays use an easily measured gene product as a stand-in for the process of interest.)

Where [3] appears, read: vehicle-control 0.2% DMSO = 100%.

For the compound `CC1(C)CC1COc1ccc(C23CCCCC2=CN(CCC(=O)O)C(=O)N3)cc1Cl` (racemic) [Example 88], the figures for the EC50 in assay [1] and in assay [2] were 0.751 µM and 0.169 µM, respectively.

For the compound `O=C(O)CCN1C=C2CCCCC2(c2ccc(OC3CCCCC3)c(Cl)c2)NC1=O` (racemic) [Example 95], the EC50 in assay [1] came out at 2.34 µM; in assay [2] it was 0.455 µM.

`CC(C)Oc1ccc(C23CCCCC2=CN(CCC(=O)O)C(=O)N3)cc1Cl` (racemic) [Example 96]: the EC50 in assay [1] and in assay [2] was above 10 µM in each case. Also, the “hRORγ luciferase activity after treatment with test compound, %-of-control” value in assay [1] (setting [3]) is recorded as “(84%)”. In assay [2] (setting [3]), the “mRORγ luciferase activity after treatment with test compound, %-of-control” value is “(84%)”.

With `CC1(C)CC(COc2ccc(C34CCCCC3=CN(CCC(=O)O)C(=O)N4)cc2Cl)C1` (racemic) [Example 100], the EC50 is 0.206 µM in assay [1] and 0.055 µM in assay [2].

With `CCCCOc1ccc(C23CCCCC2=CN(CCC(=O)O)C(=O)N3)cc1Cl` (racemic) [Example 101], the EC50 is 7.28 µM in assay [1] and 1.39 µM in assay [2].

With `CC1C2=CN(C34CC(C(=O)O)(C3)C4)C(=O)NC2(c2ccc(CCC(C)(C)C)c(Cl)c2)CC1(C)C` (single isomer, unassigned) [Example 34], the results for the EC50 in assay [1] and in assay [2] were 0.087 µM and 0.169 µM, respectively.

As to `CC1C2=CN(C34CC(C(=O)O)(C3)C4)C(=O)NC2(c2ccc(CCC(C)(C)C)c(Cl)c2)CC1(C)C` (single isomer, unassigned) [Example 35], the EC50 in assay [1] is 4.19 µM; in assay [2] it was 4.97 µM.

For `CC(C)(C)CCc1ccc([C@]23CCC(F)(F)CC2=CN(C24CC(C(=O)O)(C2)C4)C(=O)N3)cc1Cl` (single isomer, unassigned) [Example 86], the values for the EC50 in assay [1] and in assay [2] were 4.94 µM and 4.37 µM, respectively.

In the case of `CC(C)(C)CCc1ccc([C@@]23CCC(F)(F)CC2=CN(C24CC(C(=O)O)(C2)C4)C(=O)N3)cc1Cl` (single isomer, unassigned) [Example 87], the EC50 in assay [1] stood at 0.038 µM; in assay [2], 0.029 µM.

Consider `CC1CC[C@]2(c3ccc(CCC(C)(C)C)c(Cl)c3)NC(=O)N(C34CC(C(=O)O)(C3)C4)C=C2C1` (single isomer, unassigned) [Example 89], for which the EC50 in assay [1] was 3.71 µM; in assay [2] it was 4.19 µM.

On to `CC1CC[C@@]2(c3ccc(CCC(C)(C)C)c(Cl)c3)NC(=O)N(C34CC(C(=O)O)(C3)C4)C=C2C1` (single isomer, unassigned) [Example 90], for which the EC50 in assay [1] worked out at 0.022 µM; in assay [2], 0.023 µM.

As to `CC1CC[C@]2(c3ccc(CCC(C)(C)C)c(Cl)c3)NC(=O)N(C34CC(C(=O)O)(C3)C4)C=C2C1` (single isomer, unassigned) [Example 91], the EC50 in assay [1] was determined as 0.111 µM; in assay [2], 0.185 µM.

Regarding `CC1CC[C@@]2(c3ccc(CCC(C)(C)C)c(Cl)c3)NC(=O)N(C34CC(C(=O)O)(C3)C4)C=C2C1` (single isomer, unassigned) [Example 92], the EC50 was 0.042 µM in assay [1] and 0.019 µM in assay [2].

Regarding `CCC1CC[C@]2(c3ccc(CCC(C)(C)C)c(Cl)c3)NC(=O)N(C34CC(C(=O)O)(C3)C4)C=C2C1` (single isomer, unassigned) [Example 93], the EC50 was found to be 3.97 µM in assay [1] and 4.23 µM in assay [2].

For the compound `CCC1CC[C@@]2(c3ccc(CCC(C)(C)C)c(Cl)c3)NC(=O)N(C34CC(C(=O)O)(C3)C4)C=C2C1` (single isomer, unassigned) [Example 94], the EC50 in assay [1] was determined as 0.046 µM; in assay [2] it was 0.082 µM.

Turning to `CC(C)(C)CCc1ccc(C23CCC(C#N)CC2=CN(C24CC(C(=O)O)(C2)C4)C(=O)N3)cc1Cl` (single isomer, unassigned) [Example 97], the EC50 is 0.11 µM in assay [1] and 0.156 µM in assay [2].

As to `CC(C)C1CC[C@]2(c3ccc(CCC(C)(C)C)c(Cl)c3)NC(=O)N(C34CC(C(=O)O)(C3)C4)C=C2C1` (single isomer, unassigned) [Example 98], the results for the EC50 in assay [1] and in assay [2] were 4.36 µM and 5.11 µM, respectively.

Regarding `CC(C)C1CC[C@@]2(c3ccc(CCC(C)(C)C)c(Cl)c3)NC(=O)N(C34CC(C(=O)O)(C3)C4)C=C2C1` (single isomer, unassigned) [Example 99], the results for the EC50 in assay [1] and in assay [2] were 0.053 µM and 0.146 µM, respectively.

For `CC(C)(C)CCc1ccc([C@]23CCC(C)(C)CC2=CN(C24CC(C(=O)O)(C2)C4)C(=O)N3)cc1Cl` (single isomer, unassigned) [Example 102], the results for the EC50 in assay [1] and in assay [2] were 3.95 µM and 4.57 µM, respectively.

Consider `CC(C)(C)CCc1ccc([C@@]23CCC(C)(C)CC2=CN(C24CC(C(=O)O)(C2)C4)C(=O)N3)cc1Cl` (single isomer, unassigned) [Example 103], for which the results for the EC50 in assay [1] and in assay [2] were 0.026 µM and 0.046 µM, respectively.

Regarding `CC(C)C1CC[C@]2(c3ccc(CCC(C)(C)C)c(Cl)c3)NC(=O)N([C@H]3CC[C@@H](C(=O)O)C3)C=C2C1` (single isomer, unassigned) [Example 104], the EC50 in assay [1] was 5.26 µM; in assay [2], 5.28 µM.

Turning to `CC(C)C1CC[C@@]2(c3ccc(CCC(C)(C)C)c(Cl)c3)NC(=O)N([C@H]3CC[C@@H](C(=O)O)C3)C=C2C1` (single isomer, unassigned) [Example 105], the EC50 in assay [1] is 0.102 µM; in assay [2], 0.113 µM.

As for `C[C@@H]1CCC2(c3ccc(CCC(C)(C)C)c(Cl)c3)NC(=O)N(C34CC(C(=O)O)(C3)C4)C=C2[C@@H]1C` (single isomer, unassigned) [Example 106], the EC50 in assay [1] turned out to be 4.4 µM; in assay [2] it was 4.78 µM.

For the compound `C[C@H]1CCC2(c3ccc(CCC(C)(C)C)c(Cl)c3)NC(=O)N(C34CC(C(=O)O)(C3)C4)C=C2[C@@H]1C` (single isomer, unassigned) [Example 107], the EC50 in assay [1] amounted to 0.027 µM; in assay [2], 0.032 µM.

For the compound `CC1C2=CN(C34CC(C(=O)O)(C3)C4)C(=O)N[C@@]2(c2ccc(CCC(C)(C)C)c(Cl)c2)COC1(C)C` (single isomer, unassigned) [Example 108], the values for the EC50 in assay [1] and in assay [2] were 4.69 µM and 5.05 µM, respectively.

On to `CC1C2=CN(C34CC(C(=O)O)(C3)C4)C(=O)N[C@]2(c2ccc(CCC(C)(C)C)c(Cl)c2)COC1(C)C` (single isomer, unassigned) [Example 109], for which the EC50 in assay [1] was 0.033 µM; in assay [2], 0.036 µM.

Take `CC1C2=CN(C34CC(C(=O)O)(C3)C4)C(=O)N[C@]2(c2ccc(CCC(C)(C)C)c(Cl)c2)COC1(C)C` (single isomer, unassigned) [Example 110]: the figures for the EC50 in assay [1] and in assay [2] were 0.01 µM and 0.012 µM, respectively.

As a reminder, the EC50 is the midpoint of the concentration-response curve. Read a high EC50 as a less potent agent.
